Results taken from the NIST ThermoML archive (doi:10.1021/je100290a).
Numbers after ± are expanded uncertainties.

Tests used:
[1] = xn = mol fraction of the nth substance listed; conditions: 101 kPa, Liquid
[2] = 101 kPa, Liquid

NCCN [ethane-1,2-diamine] + OCCO
mass density ([1]; 298.15 K, x1 = 0.1027): 1096.6 ± 3.6 kg/m3 | viscosity ([1]; 298.15 K, x1 = 0.1027): 22.28 ± 0.44 mPa·s | mass density ([1]; 298.15 K, x1 = 0.1541): 1086.6 ± 3.6 kg/m3 | viscosity ([1]; 298.15 K, x1 = 0.1541): 25.54 ± 0.5 mPa·s | mass density ([1]; 298.15 K, x1 = 0.2052): 1078.4 ± 3.5 kg/m3 | viscosity ([1]; 298.15 K, x1 = 0.2052): 28.37 ± 0.55 mPa·s | mass density ([1]; 298.15 K, x1 = 0.2561): 1068.5 ± 3.5 kg/m3 | viscosity ([1]; 298.15 K, x1 = 0.2561): 30.73 ± 0.59 mPa·s | mass density ([1]; 298.15 K, x1 = 0.3066): 1061.4 ± 3.5 kg/m3 | viscosity ([1]; 298.15 K, x1 = 0.3066): 31.46 ± 0.61 mPa·s | mass density ([1]; 298.15 K, x1 = 0.3568): 1051 ± 3.4 kg/m3 | viscosity ([1]; 298.15 K, x1 = 0.3568): 30.7 ± 0.59 mPa·s | mass density ([1]; 298.15 K, x1 = 0.4078): 1040.4 ± 3.4 kg/m3 | viscosity ([1]; 298.15 K, x1 = 0.4078): 28.32 ± 0.55 mPa·s | mass density ([1]; 298.15 K, x1 = 0.508): 1018.5 ± 3.3 kg/m3 | viscosity ([1]; 298.15 K, x1 = 0.508): 20.17 ± 0.4 mPa·s | mass density ([1]; 298.15 K, x1 = 0.5579): 1006.6 ± 3.2 kg/m3 | viscosity ([1]; 298.15 K, x1 = 0.5579): 16.06 ± 0.32 mPa·s | mass density ([1]; 298.15 K, x1 = 0.6065): 995.4 ± 3.2 kg/m3 | viscosity ([1]; 298.15 K, x1 = 0.6065): 12.51 ± 0.26 mPa·s | mass density ([1]; 298.15 K, x1 = 0.6573): 983.1 ± 3.1 kg/m3 | viscosity ([1]; 298.15 K, x1 = 0.6573): 9.028 ± 0.19 mPa·s | mass density ([1]; 298.15 K, x1 = 0.7071): 970.1 ± 3.1 kg/m3 | viscosity ([1]; 298.15 K, x1 = 0.7071): 6.882 ± 0.15 mPa·s | mass density ([1]; 298.15 K, x1 = 0.756): 957.3 ± 3 kg/m3 | viscosity ([1]; 298.15 K, x1 = 0.756): 5.154 ± 0.12 mPa·s | mass density ([1]; 298.15 K, x1 = 0.8051): 946.2 ± 3 kg/m3 | viscosity ([1]; 298.15 K, x1 = 0.8051): 3.787 ± 0.092 mPa·s | mass density ([1]; 298.15 K, x1 = 0.8542): 933.4 ± 2.9 kg/m3 | viscosity ([1]; 298.15 K, x1 = 0.8542): 3.199 ± 0.078 mPa·s | mass density ([1]; 298.15 K, x1 = 0.9003): 919.1 ± 2.9 kg/m3 | viscosity ([1]; 298.15 K, x1 = 0.9003): 2.273 ± 0.057 mPa·s | mass density ([1]; 298.15 K, x1 = 0.9438): 908.8 ± 2.8 kg/m3 | viscosity ([1]; 298.15 K, x1 = 0.9438): 1.8 ± 0.046 mPa·s | mass density ([1]; 298.15 K, x1 = 1): 894.5 ± 2.8 kg/m3 | viscosity ([1]; 298.15 K, x1 = 1): 1.276 ± 0.033 mPa·s | mass density ([1]; 303.15 K, x1 = 0.1027): 1089.8 ± 3.7 kg/m3 | viscosity ([1]; 303.15 K, x1 = 0.1027): 17.6 ± 0.35 mPa·s | mass density ([1]; 303.15 K, x1 = 0.1541): 1080.9 ± 3.6 kg/m3 | viscosity ([1]; 303.15 K, x1 = 0.1541): 20.56 ± 0.41 mPa·s | mass density ([1]; 303.15 K, x1 = 0.2052): 1072.4 ± 3.6 kg/m3 | viscosity ([1]; 303.15 K, x1 = 0.2052): 22.44 ± 0.44 mPa·s | mass density ([1]; 303.15 K, x1 = 0.2561): 1062.2 ± 3.5 kg/m3 | viscosity ([1]; 303.15 K, x1 = 0.2561): 23.15 ± 0.45 mPa·s | mass density ([1]; 303.15 K, x1 = 0.3066): 1053.5 ± 3.5 kg/m3 | viscosity ([1]; 303.15 K, x1 = 0.3066): 23.66 ± 0.46 mPa·s | mass density ([1]; 303.15 K, x1 = 0.3568): 1042.8 ± 3.5 kg/m3 | viscosity ([1]; 303.15 K, x1 = 0.3568): 22.85 ± 0.45 mPa·s | mass density ([1]; 303.15 K, x1 = 0.4078): 1034.8 ± 3.4 kg/m3 | viscosity ([1]; 303.15 K, x1 = 0.4078): 21.31 ± 0.42 mPa·s | mass density ([1]; 303.15 K, x1 = 0.508): 1013.9 ± 3.3 kg/m3 | viscosity ([1]; 303.15 K, x1 = 0.508): 15.18 ± 0.31 mPa·s | mass density ([1]; 303.15 K, x1 = 0.5579): 1000.7 ± 3.3 kg/m3 | viscosity ([1]; 303.15 K, x1 = 0.5579): 12.27 ± 0.25 mPa·s | mass density ([1]; 303.15 K, x1 = 0.6065): 988.3 ± 3.2 kg/m3 | viscosity ([1]; 303.15 K, x1 = 0.6065): 9.748 ± 0.21 mPa·s | mass density ([1]; 303.15 K, x1 = 0.6573): 976.2 ± 3.2 kg/m3 | viscosity ([1]; 303.15 K, x1 = 0.6573): 7.157 ± 0.16 mPa·s | mass density ([1]; 303.15 K, x1 = 0.7071): 964.5 ± 3.1 kg/m3 | viscosity ([1]; 303.15 K, x1 = 0.7071): 5.681 ± 0.13 mPa·s | mass density ([1]; 303.15 K, x1 = 0.756): 951.7 ± 3.1 kg/m3 | viscosity ([1]; 303.15 K, x1 = 0.756): 4.177 ± 0.1 mPa·s | mass density ([1]; 303.15 K, x1 = 0.8051): 938.8 ± 3 kg/m3 | viscosity ([1]; 303.15 K, x1 = 0.8051): 3.154 ± 0.077 mPa·s | mass density ([1]; 303.15 K, x1 = 0.8542): 924.9 ± 3 kg/m3 | viscosity ([1]; 303.15 K, x1 = 0.8542): 2.552 ± 0.063 mPa·s | mass density ([1]; 303.15 K, x1 = 0.9003): 913.4 ± 2.9 kg/m3 | viscosity ([1]; 303.15 K, x1 = 0.9003): 1.92 ± 0.048 mPa·s | mass density ([1]; 303.15 K, x1 = 0.9438): 903.4 ± 2.9 kg/m3 | viscosity ([1]; 303.15 K, x1 = 0.9438): 1.561 ± 0.04 mPa·s | mass density ([1]; 303.15 K, x1 = 1): 890.8 ± 2.8 kg/m3 | viscosity ([1]; 303.15 K, x1 = 1): 1.211 ± 0.032 mPa·s | mass density ([1]; 308.15 K, x1 = 0.1027): 1084.4 ± 3.7 kg/m3 | viscosity ([1]; 308.15 K, x1 = 0.1027): 14.05 ± 0.29 mPa·s | mass density ([1]; 308.15 K, x1 = 0.1541): 1073.8 ± 3.7 kg/m3 | viscosity ([1]; 308.15 K, x1 = 0.1541): 16.93 ± 0.34 mPa·s | mass density ([1]; 308.15 K, x1 = 0.2052): 1062.4 ± 3.6 kg/m3 | viscosity ([1]; 308.15 K, x1 = 0.2052): 18.21 ± 0.36 mPa·s | mass density ([1]; 308.15 K, x1 = 0.2561): 1053.8 ± 3.6 kg/m3 | viscosity ([1]; 308.15 K, x1 = 0.2561): 19.28 ± 0.38 mPa·s | mass density ([1]; 308.15 K, x1 = 0.3066): 1042.9 ± 3.5 kg/m3 | viscosity ([1]; 308.15 K, x1 = 0.3066): 19.2 ± 0.38 mPa·s | mass density ([1]; 308.15 K, x1 = 0.3568): 1033.8 ± 3.5 kg/m3 | viscosity ([1]; 308.15 K, x1 = 0.3568): 18.5 ± 0.37 mPa·s | mass density ([1]; 308.15 K, x1 = 0.4078): 1026.6 ± 3.5 kg/m3 | viscosity ([1]; 308.15 K, x1 = 0.4078): 17 ± 0.34 mPa·s | mass density ([1]; 308.15 K, x1 = 0.508): 1007.2 ± 3.4 kg/m3 | viscosity ([1]; 308.15 K, x1 = 0.508): 11.89 ± 0.25 mPa·s | mass density ([1]; 308.15 K, x1 = 0.5579): 994.7 ± 3.3 kg/m3 | viscosity ([1]; 308.15 K, x1 = 0.5579): 8.772 ± 0.19 mPa·s | mass density ([1]; 308.15 K, x1 = 0.6065): 981.8 ± 3.3 kg/m3 | viscosity ([1]; 308.15 K, x1 = 0.6065): 6.254 ± 0.14 mPa·s | mass density ([1]; 308.15 K, x1 = 0.6573): 968.7 ± 3.2 kg/m3 | viscosity ([1]; 308.15 K, x1 = 0.6573): 4.674 ± 0.11 mPa·s | mass density ([1]; 308.15 K, x1 = 0.7071): 956.1 ± 3.2 kg/m3 | viscosity ([1]; 308.15 K, x1 = 0.7071): 4.008 ± 0.097 mPa·s | mass density ([1]; 308.15 K, x1 = 0.756): 944.4 ± 3.1 kg/m3 | viscosity ([1]; 308.15 K, x1 = 0.756): 3.547 ± 0.086 mPa·s | mass density ([1]; 308.15 K, x1 = 0.8051): 931.7 ± 3.1 kg/m3 | viscosity ([1]; 308.15 K, x1 = 0.8051): 2.683 ± 0.066 mPa·s | mass density ([1]; 308.15 K, x1 = 0.8542): 917.5 ± 3 kg/m3 | viscosity ([1]; 308.15 K, x1 = 0.8542): 2.128 ± 0.053 mPa·s | mass density ([1]; 308.15 K, x1 = 0.9003): 907.2 ± 3 kg/m3 | viscosity ([1]; 308.15 K, x1 = 0.9003): 1.713 ± 0.043 mPa·s | mass density ([1]; 308.15 K, x1 = 0.9438): 897.5 ± 2.9 kg/m3 | viscosity ([1]; 308.15 K, x1 = 0.9438): 1.422 ± 0.037 mPa·s | mass density ([1]; 308.15 K, x1 = 1): 885.6 ± 2.9 kg/m3 | viscosity ([1]; 308.15 K, x1 = 1): 1.107 ± 0.029 mPa·s

OCCO [1,2-ethanediol]
viscosity ([2]; 298.15 K): 16.8 ± 0.34 mPa·s | mass density ([2]; 303.15 K): 1105.8 ± 3.7 kg/m3 | viscosity ([2]; 303.15 K): 13.4 ± 0.27 mPa·s | viscosity ([2]; 308.15 K): 11.33 ± 0.24 mPa·s

OCCO [1,2-ethanediol] + NCCN
viscosity ([1]; 298.15 K, x2 = 0): 16.8 ± 0.34 mPa·s | mass density ([1]; 303.15 K, x2 = 0): 1105.8 ± 3.7 kg/m3 | viscosity ([1]; 303.15 K, x2 = 0): 13.4 ± 0.27 mPa·s | viscosity ([1]; 308.15 K, x2 = 0): 11.33 ± 0.24 mPa·s

NCCN [ethane-1,2-diamine]
mass density ([2]; 298.15 K): 894.5 ± 2.8 kg/m3 | viscosity ([2]; 298.15 K): 1.276 ± 0.033 mPa·s | mass density ([2]; 303.15 K): 890.8 ± 2.8 kg/m3 | viscosity ([2]; 303.15 K): 1.211 ± 0.032 mPa·s | mass density ([2]; 308.15 K): 885.6 ± 2.9 kg/m3 | viscosity ([2]; 308.15 K): 1.107 ± 0.029 mPa·s
